Laboratory results from PubChem BioAssay AID256 (DTP/NCI, 2004).
Several values for one entry are separate records, joined by “and”; a condition that tells them apart may be missing. Equal values may be shown once. Toxic doses and inconclusive results are not listed.

System: CD2F1 mice, L1210 leukemia ip, survival T/C
Test: NCI In Vivo Anticancer Drug Screen. Data for tumor model L1210 Leukemia (intraperitoneal) in CD2F1 (CDF1) mice
Conditions: higher = longer survival
Method in brief: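 Antitumor effect is scored in animals hosting a serially transplanted tumor. Values compare compound-dosed animals against vehicle-only controls as a simple quotient.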

[1] = endpoint: mean survival time, dose: 100.0 mg/kg/injection, schedule: Q04DX003 (ip), vehicle: saline with Tween-80
[2] = endpoint: mean survival time, dose: 200.0 mg/kg/injection, schedule: Q04DX003 (ip), vehicle: saline with Tween-80
[3] = endpoint: mean survival time, dose: 400.0 mg/kg/injection, schedule: Q04DX003 (ip), vehicle: saline with Tween-80
[4] = endpoint: mean survival time, dose: 50.0 mg/kg/injection, schedule: Q01DX009 (ip), vehicle: saline with Tween-80
[5] = endpoint: mean survival time, dose: 100.0 mg/kg/injection, schedule: Q01DX009 (ip), vehicle: saline with Tween-80
[6] = endpoint: mean survival time, dose: 200.0 mg/kg/injection, schedule: Q01DX009 (ip), vehicle: saline with Tween-80
[7] = endpoint: mean survival time, dose: 100.0 mg/kg/injection, schedule: Q01DX001 (ip), vehicle: saline
[8] = endpoint: mean survival time, dose: 200.0 mg/kg/injection, schedule: Q01DX001 (ip), vehicle: saline
[9] = endpoint: mean survival time, dose: 400.0 mg/kg/injection, schedule: Q01DX001 (ip), vehicle: saline
[10] = endpoint: mean survival time, dose: 400.0 mg/kg/injection, schedule: Q01DX009 (ip), vehicle: saline with Tween-80
[11] = endpoint: mean survival time, dose: 25.0 mg/kg/injection, schedule: Q01DX009 (ip), vehicle: saline with Tween-80
[12] = endpoint: mean survival time, dose: 100.0 mg/kg/injection, schedule: Q04DX002 (ip), vehicle: saline with Tween-80
[13] = endpoint: mean survival time, dose: 200.0 mg/kg/injection, schedule: Q04DX002 (ip), vehicle: saline with Tween-80

CCOC(=O)CCC(=O)CC(O)(C(F)(F)F)C(F)(F)Cl (configuration not stated)
T/C (endpoint: mean survival time, dose: 100.0 mg/kg/injection, schedule: Q01DX009 (ip), vehicle: saline): 104 % of control | T/C [1]: 86 % of control | T/C (endpoint: mean survival time, dose: 200.0 mg/kg/injection, schedule: Q01DX009 (ip), vehicle: saline): 98 % of control | T/C [2]: 103 % of control | T/C (endpoint: mean survival time, dose: 400.0 mg/kg/injection, schedule: Q01DX009 (ip), vehicle: saline): 107 % of control | T/C [3]: 96 % of control

Nc1cccc(CCCCc2cccc(S(=O)(=O)F)c2)c1
T/C [4]: 97 % of control | T/C [5]: 95 % of control | T/C [1]: 100 % of control | T/C [6]: 97 % of control | T/C [2]: 95 % of control

N#Cc1ccccc1C(C#N)c1ccc([N+](=O)[O-])cc1 (configuration not stated)
T/C (endpoint: mean survival time, dose: 50.0 mg/kg/injection, schedule: Q04DX003 (ip), vehicle: DMSO): 93 % of control | T/C (endpoint: mean survival time, dose: 100.0 mg/kg/injection, schedule: Q04DX003 (ip), vehicle: DMSO): 98 % of control | T/C (endpoint: mean survival time, dose: 200.0 mg/kg/injection, schedule: Q04DX003 (ip), vehicle: DMSO): 93 % of control | T/C (endpoint: mean survival time, dose: 400.0 mg/kg/injection, schedule: Q04DX003 (ip), vehicle: DMSO): 96 % of control

O=C(CCC(=O)c1cccc([N+](=O)[O-])c1)NNc1ccc([N+](=O)[O-])cc1[N+](=O)[O-]
T/C [1]: 98 % of control | T/C [2]: 98 % of control | T/C [3]: 102 % of control

O=C1Nc2ccccc2/C1=N/N=P(c1ccccc1)(c1ccccc1)c1ccccc1
T/C (endpoint: median survival time, dose: 50.0 mg/kg/injection, schedule: Q04DX002 (ip), vehicle: saline with Tween-80): 100 % of control | T/C (endpoint: median survival time, dose: 100.0 mg/kg/injection, schedule: Q04DX002 (ip), vehicle: saline with Tween-80): 110 % of control | T/C (endpoint: median survival time, dose: 200.0 mg/kg/injection, schedule: Q04DX002 (ip), vehicle: saline with Tween-80): 100 % of control | T/C (endpoint: median survival time, dose: 400.0 mg/kg/injection, schedule: Q04DX002 (ip), vehicle: saline with Tween-80): 100 % of control

CC(O)CN(C)C (configuration not stated)
T/C [7]: 98 % of control | T/C [8]: 103 % of control | T/C [9]: 103 % of control

Nc1cccc(-c2nc3ncnc(N)c3[nH]2)c1
T/C [1]: 94 % of control | T/C [2]: 94 % of control | T/C [3]: 93 % of control

CCCCNC(=O)NCCc1ccc(OC)c(OC)c1
T/C [5]: 87 % of control | T/C [6]: 89 % of control

O=C1NC(=O)C2CCCCC12 (configuration not stated)
T/C [5]: 100 % of control | T/C [1]: 97 % of control | T/C [6]: 95 % of control | T/C [2]: 101 % of control | T/C [10]: 95 % of control | T/C [3]: 95 % of control

O=C(O)c1c(Cl)c(-c2c(Cl)c(C(=O)O)c(Cl)c([N+](=O)[O-])c2Cl)c(Cl)c([N+](=O)[O-])c1Cl
T/C (endpoint: mean survival time, dose: 100.0 mg/kg/injection, schedule: Q01DX001 (ip), vehicle: saline with Tween-80): 93 % of control | T/C (endpoint: mean survival time, dose: 200.0 mg/kg/injection, schedule: Q01DX001 (ip), vehicle: saline with Tween-80): 94 % of control | T/C (endpoint: mean survival time, dose: 400.0 mg/kg/injection, schedule: Q01DX001 (ip), vehicle: saline with Tween-80): 89 % of control

N#CC1C2CCC(O2)C1C(=O)OCc1ccccc1 (configuration not stated)
T/C [11]: 102 % of control | T/C (endpoint: mean survival time, dose: 25.0 mg/kg/injection, schedule: Q04DX002 (ip), vehicle: saline with Tween-80): 106 % of control | T/C [4]: 102 % of control | T/C (endpoint: mean survival time, dose: 50.0 mg/kg/injection, schedule: Q04DX002 (ip), vehicle: saline with Tween-80): 101 % of control | T/C [5]: 102 % of control | T/C [12]: 101 % of control | T/C [13]: 89 % of control

COC(=O)c1ncn(C2OC(COC(=O)c3ccccc3)C(OC(=O)c3ccccc3)C2OC(=O)c2ccccc2)c1C(=O)OC (configuration not stated)
T/C (endpoint: median survival time, dose: 8.75 mg/kg/injection, schedule: Q01DX005 (ip), vehicle: distilled water + Tween-80): 93 % of control | T/C (endpoint: median survival time, dose: 12.5 mg/kg/injection, schedule: Q01DX005 (ip), vehicle: distilled water + Tween-80): 97 % of control | T/C (endpoint: median survival time, dose: 25.0 mg/kg/injection, schedule: Q01DX005 (ip), vehicle: distilled water + Tween-80): 90 % of control | T/C (endpoint: median survival time, dose: 35.0 mg/kg/injection, schedule: Q01DX005 (ip), vehicle: distilled water + Tween-80): 103 % of control | T/C (endpoint: median survival time, dose: 50.0 mg/kg/injection, schedule: Q01DX005 (ip), vehicle: distilled water + Tween-80): 88 % of control | T/C (endpoint: median survival time, dose: 100.0 mg/kg/injection, schedule: Q01DX005 (ip), vehicle: distilled water + Tween-80): 92 % of control | T/C (endpoint: median survival time, dose: 140.0 mg/kg/injection, schedule: Q01DX005 (ip), vehicle: distilled water + Tween-80): 89 % of control | T/C (endpoint: median survival time, dose: 200.0 mg/kg/injection, schedule: Q01DX005 (ip), vehicle: distilled water + Tween-80): 97 % of control

O=S1(=O)N=C2C3CCN(CC3)C2C(c2ccccc2)N1 (configuration not stated)
T/C (endpoint: mean survival time, dose: 50.0 mg/kg/injection, schedule: Q01DX001 (ip), vehicle: saline): 94 % of control | T/C [7]: 101 % of control | T/C [8]: 101 % of control

CCCCCOP(N)(=O)OCCCCC
T/C [12]: 88 % of control | T/C [13]: 92 % of control | T/C (endpoint: mean survival time, dose: 400.0 mg/kg/injection, schedule: Q04DX002 (ip), vehicle: saline with Tween-80): 100 % of control

C[CH2][Sn]1([CH2]C)[O]C2C(CO)OC(n3cnc4c(N)ncnc43)C2[O]1 (configuration not stated)
T/C (endpoint: mean survival time, dose: 1.56 mg/kg/injection, schedule: Q01DX005 (ip), vehicle: other): 100 % of control | T/C (endpoint: mean survival time, dose: 3.13 mg/kg/injection, schedule: Q01DX005 (ip), vehicle: other): 102 % of control | T/C (endpoint: mean survival time, dose: 6.25 mg/kg/injection, schedule: Q01DX005 (ip), vehicle: other): 104 % of control | T/C (endpoint: mean survival time, dose: 12.5 mg/kg/injection, schedule: Q01DX005 (ip), vehicle: other): 105 % of control and 106 % of control

Nc1nc([Se]c2nc(N)nc3c2ncn3C2OC(CO)C(O)C2O)c2ncn(C3OC(CO)C(O)C3O)c2n1 (configuration not stated)
T/C (endpoint: median survival time, dose: 36.0 mg/kg/injection, schedule: Q01DX005 (ip), vehicle: distilled water + Tween-80): 156 % of control | T/C (endpoint: median survival time, dose: 60.0 mg/kg/injection, schedule: Q01DX005 (ip), vehicle: distilled water + Tween-80): 162 % of control

CCOC(=O)Nc1cc(Cl)ccc1O
T/C [5]: 103 % of control | T/C [1]: 92 % of control | T/C [6]: 104 % of control | T/C [2]: 103 % of control | T/C [3]: 88 % of control

O=C(O)C1CCC(C(=O)O)S1 (configuration not stated)
T/C [7]: 96 % of control | T/C [8]: 101 % of control | T/C [9]: 110 % of control

COC1OC(CO)C(O)C(OC)C1OC (configuration not stated) (tested in a mixture with another compound)
T/C [7]: 100 % of control | T/C [8]: 100 % of control | T/C [9]: 100 % of control

[Cl][Hg][Cl]
T/C (endpoint: median survival time, dose: 0.39 mg/kg/injection, schedule: Q01DX009 (ip), vehicle: saline): 101 % of control | T/C (endpoint: median survival time, dose: 0.78 mg/kg/injection, schedule: Q01DX009 (ip), vehicle: saline): 97 % of control | T/C (endpoint: median survival time, dose: 1.56 mg/kg/injection, schedule: Q01DX009 (ip), vehicle: saline): 101 % of control | T/C (endpoint: median survival time, dose: 3.12 mg/kg/injection, schedule: Q01DX009 (ip), vehicle: saline): 92 % of control

CCC(=O)Nc1ncc([N+](=O)[O-])s1
T/C [4]: 94 % of control | T/C [5]: 100 % of control

c1coc(-c2nc3ccccc3s2)c1
T/C (endpoint: mean survival time, dose: 50.0 mg/kg/injection, schedule: Q01DX001 (ip), vehicle: Klucel (hydroxypropylcellulose) (HPC)): 96 % of control | T/C (endpoint: mean survival time, dose: 100.0 mg/kg/injection, schedule: Q01DX001 (ip), vehicle: Klucel (hydroxypropylcellulose) (HPC)): 93 % of control and 95 % of control | T/C (endpoint: mean survival time, dose: 200.0 mg/kg/injection, schedule: Q01DX001 (ip), vehicle: Klucel (hydroxypropylcellulose) (HPC)): 120 % of control and 90 % of control

COC1CC(O)C2OC(c3ccccc3)OCC2O1 (configuration not stated)
T/C [1]: 104 % of control | T/C [2]: 93 % of control | T/C [3]: 107 % of control

CN(C(=O)Nc1ccccc1)c1ccccc1
T/C (endpoint: mean survival time, dose: 50.0 mg/kg/injection, schedule: Q01DX009 (ip), vehicle: other): 104 % of control | T/C (endpoint: mean survival time, dose: 100.0 mg/kg/injection, schedule: Q01DX009 (ip), vehicle: other): 97 % of control | T/C (endpoint: mean survival time, dose: 200.0 mg/kg/injection, schedule: Q01DX009 (ip), vehicle: other): 97 % of control

O=C1/C(=C(/c2ccccc2)N2CCOCC2)Cc2ccccc21
T/C (endpoint: mean survival time, dose: 6.25 mg/kg/injection, schedule: Q01DX009 (ip), vehicle: saline with Tween-80): 90 % of control | T/C (endpoint: mean survival time, dose: 6.25 mg/kg/injection, schedule: Q04DX003 (ip), vehicle: saline with Tween-80): 99 % of control | T/C (endpoint: mean survival time, dose: 12.5 mg/kg/injection, schedule: Q01DX009 (ip), vehicle: saline with Tween-80): 97 % of control | T/C (endpoint: mean survival time, dose: 12.5 mg/kg/injection, schedule: Q04DX003 (ip), vehicle: saline with Tween-80): 91 % of control | T/C [11]: 92 % of control | T/C (endpoint: mean survival time, dose: 25.0 mg/kg/injection, schedule: Q04DX003 (ip), vehicle: saline with Tween-80): 98 % of control

OC(Cc1nc(-c2ccccc2)c(-c2ccccc2)s1)(C(F)(F)F)C(F)(F)F
T/C [5]: 95 % of control | T/C [1]: 91 % of control | T/C [6]: 101 % of control | T/C [2]: 95 % of control | T/C [10]: 86 % of control | T/C [3]: 89 % of control

COC(=O)CCCCC(=O)OC
T/C [1]: 96 % of control | T/C [2]: 102 % of control | T/C [3]: 102 % of control
